Measurements taken from US20230193350A1, “METHOD FOR DIAGNOSING AND TREATING BLOOD CANCER” (Ohara Pharmaceutical Co., Ltd., priority 2020, published 2023).

How the values were obtained:
Type in all cases: cell-based
MT-1 cells = assay: Proliferation of MT-1 cells (Cell Countdown Kit-8, formazan absorbance); settings: 4 days, FIG. 3
Experimental: MT-1 cells (ATL-derived cell lines) were purchased from JCRB Cell Bank. MT-1 cells were seeded on a 24-well plate at 0.4×10^5 cells/0.9 mL/well and cultured for 3 hours in an RPMI1640 culture solution comprising 10% fetal bovine serum (FBS) and 1% penicillin-streptomycin in an environment of 37° C. and 5% CO2. Then, OR21, a DNA methyl transferase inhibitor and/or EPZ-6438 or DS-3201b, histone methyl transferase inhibitors were dissolved in the same culture solution, and 0.1 mL thereof was added to each well, and cultured for 4 days while exchanging with a fresh culture solution comprising each inhibitor every two days. The final concentrations of the inhibitors in the culture solution were 0.5 μM for OR21, 2.5 μM for EPZ-6438, and 0.1 μM, 0.5 μM, and 2.5 μM for DS-3201b. In addition, groups of single and combined additions of each inhibitor were provided. The effect of each inhibitor on cell proliferation was measured using Cell Countdown Kit-8 (Dojindo Laboratories). The water-soluble formazan in each well produced from reduction of tetrazolium salt […] was measured at two wavelength (450 nm/620 nm) using a plate reader (Varioskan Flash, Thermo-Fisher Scientific). The results are expressed as relative values with the absorbance of the wells in which no inhibitor was added as 100%.

DUSP5 protein = assay: Expression amount of DUSP5 protein in MT-1 cells by Western blotting; settings: 4 days culture, FIG. 2B
Experimental: (§1) MT-1 cells (ATL-derived cell lines) were purchased from JCRB Cell Bank and cultured in an RPMI1640 culture solution comprising 10% fetal bovine serum (FBS) and 1% penicillin-streptomycin in an environment of 37° C. and 5% CO2. The culture was started by additions of OR21, a DNA methyl transferase inhibitor and/or EPZ-6438, a histone methyl transferase inhibitor to a culture solution of MT-1 cells, exchanged with a fresh culture solution comprising the inhibitors after 2 days, and further cultured for 2 days. After culturing, the cells were collected and dissolved, and the expression amount of DUSP5 protein was measured by Western blotting.

DUSP5 mRNA = assay: Expression amount of DUSP5 mRNA in MT-1 cells by RT-PCR; settings: 4 days culture, FIG. 2A
Experimental: as §1, with “total RNA was extracted,” for “dissolved,”, “mRNA” for “protein”, “RT-PCR using SYBR @ Green (Takara Bio).” for “Western blotting.”

Cc1cc(C)c(CNC(=O)c2cc(Cl)c3c(c2C)O[C@@](C)([C@H]2CC[C@H](N(C)C)CC2)O3)c(=O)[nH]1.Cc1ccc(S(=O)(=O)O)cc1 [DS-3201b, 4-methylbenzene-1-sulfonic acid (2R)-7-chloro-2-[(trans)-4-(dimethylamino)cyclohexyl]-N-[(4,6-dimethyl-2-oxo-1,2-dihydropyridin-3-yl)methyl]-2,4-dimethyl-2H-1,3-benzodioxole-5-carboxamide]
proliferation of MT-1 cells (MT-1 cells; DS-3201b 0.1 μM to 2.5 μM): hardly affected

CCN(c1cc(-c2ccc(CN3CCOCC3)cc2)cc(C(=O)NCc2c(C)cc(C)[nH]c2=O)c1C)C1CCOCC1 [EPZ-6438, N-[(4,6-dimethyl-2-oxo-1,2-dihydropyridin-3-yl)methyl]-5-[ethyl(tetrahydro-2H-pyran-4-yl)amino]-4-methyl-4′-(morpholin-4-ylmethyl) biphenyl-3-carboxamide]
expression amount of DUSP5 protein (DUSP5 protein; EPZ-6438 2.5 μM): almost no effect | proliferation of MT-1 cells (MT-1 cells; EPZ-6438 2.5 μM): hardly affected | DUSP5 mRNA expression (DUSP5 mRNA; EPZ-6438 at 0.5 μM and 2.5 μM): almost no effect

CC[Si](CC)(CC)OC[C@H]1O[C@@H](n2cnc(N)nc2=O)C[C@@H]1O [OR21, 5′-O-triethylsilyl-2′-deoxy-5-azacytidine]
expression amount of DUSP5 protein (DUSP5 protein; OR21 0.5 μM): apparent increase | proliferation of MT-1 cells (MT-1 cells; OR21 0.5 μM): exhibited an effect of inhibiting proliferation | DUSP5 mRNA expression (DUSP5 mRNA; OR21 at 0.1 μM and 0.5 μM): enhanced DUSP5 mRNA expression in a concentration-dependent manner
